# Reference: patent publication US20150284364A1, “SUBSTITUTED INDOLE DERIVATIVES” (priority 2012, published 2015)
# Tests used:
# [1] = Chemical stability of the trihydrate of example 1; assay type: physicochemical
# [2] = Solubility in simulated gastric and intestinal fluids; assay type: physicochemical; conditions: for Final pH: solubility test
# From the text: Solubility of compound Example No. 1 in simulated gastric and in simulated intestinal fluids at room temperature
# Solubility of compound Example No. 3 (free form/acetate salt form) in simulated gastric fluids: […]
# [3] = Blood levels and pharmacokinetics after oral administration of compound of example No. 1; assay type: in vivo, Beagle dogs; conditions: example 3 main component in blood after around an hour
# Protocol: A single dose of the compound of example 1 (3.0 mg/kg) was administered p.o. to 3 male Beagle dogs. Compound 1 was dosed as an aqueous suspension of the crystalline monohydrate form in Methylcellulose (0.5%): Tween 80 (1%) (90:10). Blood was taken in regular intervals by venipuncture, and the samples were analyzed for a period of up to 24 hours. The compounds of the examples 1, 2, and 3 were quantitatively assessed over time, and the results are tabulated below:
# Key pharmacokinetic parameters (mean values±standard deviations (n=3) for 1, 2 and 3 after oral dosing of example No. 1.
# [4] = system: Bone marrow cells from CBA mice; test: Bone marrow cell proliferation (BM) assay; assay type: cell-based; conditions: Mus musculus, 3H-thymidine incorporation, four days incubation
# Protocol: Bone marrow cells from CBA mice (2.5×10^4 cells per well in flat bottom tissue culture microtiter plates) were incubated in 100 μL RPMI medium containing 10% FCS, 100 U/mL penicillin, 100 μg/mL streptomycin (Gibco BRL, Basel Switzerland), 50 μM 2-mercaptoethanol (Fluka, Buchs, Switzerland), WEHI-3 conditioned medium (7.5% v/v) and L929 conditioned medium (3% v/v) as a source of growth factors and serially diluted compounds. Seven three-fold dilution steps in duplicates per test compounds were performed. After four days of incubation 1 μCi ^3H-thymidine was added. Cells were harvested after an additional five-hour incubation period, and incorporated ^3H-thymidine was determined according to standard procedures. Conditioned media were prepared as follows. WEHI-3 cells (ATCC TIB68) and L929 cells (ATCC CCL 1) were grown in RPMI medium until confluence for 4 days and one week, respectively. Cells were harvested, resuspended in the same culture flasks in medium C containing 1% FCS (Schreier and Tess 1981) for WEHI-3 cells and RPMI medium for L929 cells and incubated for 2 days (WEHI-3) or one week (L929). The supernatant was collected, filtered through 0.2 μm and stored in aliquots at −80° C. Cultures without test compounds and without WEHI-3 and L929 supernatants were used as low control values. Low control values were subtracted from all values. […]
# [5] = Chemical stability of amorphous and crystalline example No. 1 (solid state); assay type: physicochemical; conditions: for Purity: 1 week; for Initial Purity: before exposure
# [6] = Physical stability: equilibration of suspension, XRPD of isolated solid; assay type: physicochemical; conditions: based upon the equilibration experiments
# Protocol: Samples of example 1 free base which are a mixture of monohydrate and trihydrate were suspended in an organic solvent water mixture of water and equilibrated for about 4 days at 25°. […] After equilibration the suspension was filtered and the solid material isolated and analysed by XRPD.
smiles,measurement,setting,value
"Cc1cccc2c(C3=C(c4nc(N5CCNC6(CC6)C5)cc5ccccc45)C(=O)N(COP(=O)(O)O)C3=O)c[nH]c12 [Example 1, Phosphoric acid mono-[3-[3-(4,7-diaza-spiro[2.5]oct-7-yl)-isoquinolin-1-yl]-4-(7-methyl-1H-indol-3-yl)-2,5-dioxo-2,5-dihydro-pyrrol-1-ylmethyl]ester]",Purity of example 1 in %,[1]; 2 weeks 50° C.,95.57%
same,Sum of related. Substances in area %,[1]; 2 weeks 50° C.,4.52 area %
same,Purity of example 1 in %,[1]; 2 weeks 50° C./75% RH,96.20%
same,Sum of related. Substances in area %,[1]; 2 weeks 50° C./75% RH,3.66 area %
same,Purity of example 1 in %,[1]; initial,98.06%
same,Sum of related. Substances in area %,[1]; initial,1.64 area %
same,solubility,"[2]; Fasted state simulated intestinal fluid (FaSSIF) pH 6.5, room temperature",100 µg/mL
same,solubility,"[2]; Fed state simulated intestinal fluid (FeSSIF) pH 5.8, room temperature",130 µg/mL
same,solubility,"[2]; Simulated gastric fluid (SGF) pH 2, room temperature",40 µg/mL
same,Final pH,[2]; FaSSIF pH 6.5,6.59
same,Final pH,[2]; FeSSIF pH 5.8,6.05
same,Final pH,[2]; SGF pH 2,2.22
same,conversion of prodrug into parent compound in blood,[3],effective and favorable conversion into a parent compound
same,IC50,[4],6740 ± 1120 nM
same,Purity,"[5]; Amorphous, 50 ° C.",95.8%
same,Purity,"[5]; Amorphous, 80 ° C.",89.7%
same,Initial Purity,[5]; Amorphous,98.5%
same,Purity,"[5]; Crystalline monohydrate, 50 ° C.",100%
same,Purity,"[5]; Crystalline monohydrate, 80 ° C.",100%
same,Initial Purity,[5]; Crystalline monohydrate,100%
"Cc1cccc2c(C3=C(c4nc(N5CCNC6(CC6)C5)cc5ccccc45)C(=O)N(COP(=O)(O)O)C3=O)c[nH]c12.O.O.O [trihydrate of example 1, phosphoric acid mono-[3-[3-(4,7-diaza-spiro[2.5]oct-7-yl)-isoquinolin-1-yl]-4-(7-methyl-1H-indol-3-yl)-2,5-dioxo-2,5-dihydro-pyrrol-1-ylmethyl]ester, trihydrate]",relative thermodynamic stability of hydrate forms,[6],thermodynamically more stable than the monohydrate
"Cc1cccc2c(C3=C(c4nc(N5CCNC6(CC6)C5)cc5ccccc45)C(=O)NC3=O)c[nH]c12 [Example 3, 3-[3-(4,7-diaza-spiro[2.5]oct-7-yl)-isoquinolin-1-yl]-4-(7-methyl-1H-indol-3-yl)-pyrrole-2,5-dione]",Final pH,"[2]; Acetate Salt, FaSSIF pH 6.5",3.97
same,Final pH,"[2]; Acetate Salt, FeSSIF pH 5.8",6.5
same,Final pH,"[2]; Acetate Salt, SGF pH 2",5.45
same,solubility,"[2]; fasted state simulated intestinal fluid (FaSSIF), Acetate Salt, FaSSIF pH 6.5",50 µg/mL
same,solubility,"[2]; fed state simulated intestinal fluid (FeSSIF), Acetate Salt, FeSSIF pH 5.8",550 µg/mL
same,solubility,"[2]; simulated gastric fluid (SGF), simulated gastric fluid, Acetate Salt, SGF pH 2",150 µg/mL
same,IC50,[4],1670 ± 256 nM
